Assays:
E. coli = assay: Growth inhibition of E. coli upon induction of endogenous Plectasin expression (suicide expression system); assay type: cell-based
Protocol: In order to evaluate whether E. coli was growth inhibited in liquid media upon induction of endogenous Plectasin expression, the following experiment was conducted as disclosed in the examples of international patent application WO 00/73433. Briefly, fresh overnight cultures of cells containing either pDRS-18-plectasin, pDR-18-plectasin, pHH or pHHA plasmid were diluted 300-fold into 150 micro liter of LB or LB containing 0.1% arabinose in a microtiter plate and incubated at 37 degrees Celsius with vigorous shaking. The growth curve was monitored by measuring OD450 at regular intervals using an ELISA reader.

Bacillus subtilis = assay: Antimicrobial activity by radial diffusion assay; assay type: cell-based
Protocol: A modified version of a previously published protocol has been applied in the detection of antimicrobial activity (Lehrer et al., (1991) Ultrasensitive assays for endogenous antimicrobial polypeptides J Immunol Methods 137: 167-173). Target bacteria (10^6 colony forming units (CFU)) were added to 10 ml of underlay agarose (1% low electro-endosmosis agarose, 0.03% Trypticase soy broth, 10 mM sodium phosphat, pH 7.4, 37 degrees Celsius). Suspension was solidified on an INTEGRID Petri Dish (Becton Dickinson Labware, N.J.). A 3 mm Gel Puncher was used to make holes in the underlay agarose (Amersham Pharmacia Biotech, Sweden). Samples were added to the holes and incubated at 37 degrees Celsius, 3 hours. An overlay was poured on top and the plate was incubated overnight (LB media, 7.5% Agar). Antimicrobial activity was seen as bacterial clearing zones around the wells. Living cells was counterstained by adding 10 ml, 0.2 mM MTT (3-(4,5-Dimethylthiazol-2-yl)-2,5-diphenyltetrazolium bromide Thiazolyl blue). All standard protocols has been described elsewhere (Sambrook, Fritsch, and Maniatis, 1989).
To evaluate the anti-microbial activity of Plectasin, fermentation broths of recombinant Aspergillus oryzae were applied in 2-fold serial dilutions in a radial diffusion assay (described above). […]
The supernatants described above were analyzed in a radial diffusion assay as described in Example 5. […]

## Plectasin
E. coli; Plectasin directed to the periplasm
  inhibition of cell growth: 41%
E. coli; Plectasin expressed in the cytoplasm
  effect on cell growth: did not affect cell growth
Bacillus subtilis; produced in E. coli Origami-DE3 (inclusion bodies) versus the earlier E. coli host
  increase in antimicrobial activity of the peptide: 5-10 fold
Bacillus subtilis; undiluted fermentation broth of recombinant Aspergillus oryzae
  largest clearing zone: 15 mm

From patent publication US7972814B2, “Antimicrobial polypeptides from Pseudoplectania nigrella” (Novozymes Adenivro Biotech A/S, priority 2001, dated 2011)
